From ChEMBL document CHEMBL3352371, “Antiadhesive properties of glycoclusters against Pseudomonas aeruginosa lung infection” (J Med Chem, 2014) come the findings set out here.

The source made the active and inactive calls. The calls are words filed in the database; no cut-off is given here.

In data set [1] the test system is Pseudomonas aeruginosa. Briefly: Antimicrobial activity Pseudomonas aeruginosa PAO1 infected C57BL6/J mouse lung injury model assessed as protection against lung infection using 1 to 5 mM compound pre-treated bacteria for infection. The class given is functional, organism-based.
For data set [2], the system named is Pseudomonas aeruginosa. Briefly: Induction of filamentous-like and spherical bacterial aggregation in Pseudomonas aeruginosa PAO1 at 6 to 6600 uM by optical microscopy. The data set is classed as functional, organism-based.
Data set [3] concerns Pseudomonas aeruginosa. Kind of data set: Induction of filamentous-like and spherical bacterial aggregation in Pseudomonas aeruginosa PAO1 expressing deltalecA mutant at 6 to 6600 uM by optical microscopy. The data set is classed as functional, organism-based.
For data set [4], the target named is T1, PA-I galactophilic lectin (Pseudomonas aeruginosa (strain ATCC 15692 / PAO1 / 1C / PRS 101 / LMG12228), UniProt Q05097).
T1 sequence (Q05097 whole entry): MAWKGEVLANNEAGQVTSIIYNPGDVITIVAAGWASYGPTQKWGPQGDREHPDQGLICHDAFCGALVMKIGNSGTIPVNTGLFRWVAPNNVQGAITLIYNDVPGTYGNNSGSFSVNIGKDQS
Briefly: Binding affinity to Pseudomonas aeruginosa LecA by ITC method.

In data set [5] the test system is Pseudomonas aeruginosa. Briefly: Inhibition of biofilm formation of Pseudomonas aeruginosa PAO1 at 5 mM after 24 hrs by crystal violet staining. The data set is classed as functional, organism-based.
For data set [6], the system named is Pseudomonas aeruginosa. Kind of data set: Antimicrobial activity Pseudomonas aeruginosa PAO1 infected C57BL6/J mouse lung injury model assessed as reduction in alveolar-capillary permeability using 1 mM compound pre-treated bacteria for infection. The class given is functional.
In data set [7] the test system is Pseudomonas aeruginosa. Kind of data set: Effect on growth of Pseudomonas aeruginosa PAO1 at 0.1 to 5 mM after 24 hrs. The data set is classed as organism-based. As to conditions: 5000 µM.
Data set [8] deals with Pseudomonas aeruginosa. Briefly: Induction of bacterial aggregation in Pseudomonas aeruginosa PAO1 expressing deltalecA mutant assessed as number of aggregates per 100 uL of PBS cell solution at 100 uM by optical microscopy. The class given is functional, organism-based.
For data set [9], the system named is Pseudomonas aeruginosa. Briefly: Inhibition of biofilm formation of Pseudomonas aeruginosa PAO1 expressing deltalecA mutant at 5 mM after 24 hrs by crystal violet staining. The data set is classed as functional, organism-based.
Data set [10] relates to Pseudomonas aeruginosa. Kind of data set: Inhibition of biofilm formation of Pseudomonas aeruginosa PAO1 at 0.1 mM after 24 hrs by crystal violet staining. The data set is classed as functional, organism-based.
In data set [11] the test system is Pseudomonas aeruginosa. Briefly: Inhibition of biofilm formation of Pseudomonas aeruginosa PAO1 expressing deltalecB mutant at 5 mM after 24 hrs by crystal violet staining. The class given is functional, organism-based.
Data set [12] has as its system Pseudomonas aeruginosa. Briefly: Inhibition of deltalecA mutant expressing Pseudomonas aeruginosa PAO1 adhesion to human A549 cells 250 to 2500 uM. The data set is classed as functional, organism-based.
Data set [13] has as its system Pseudomonas aeruginosa. Briefly: Inhibition of Pseudomonas aeruginosa PAO1 adhesion to human A549 cells 25 to 2500 uM. The class given is functional.
Data set [14] has as its system Pseudomonas aeruginosa. Kind of data set: Antimicrobial activity Pseudomonas aeruginosa PAO1 infected C57BL6/J mouse lung injury model assessed as reduction in alveolar-capillary permeability using 5 mM compound pre-treated bacteria for infection. The class given is functional.
The subject of data set [15] is Pseudomonas aeruginosa. Briefly: Inhibition of deltalecA mutant expressing Pseudomonas aeruginosa PAO1 adhesion to human A549 cells <250 uM. The class given is functional, organism-based.
Data set [16] concerns Pseudomonas aeruginosa. Briefly: Inhibition of Pseudomonas aeruginosa PAO1 localization at human A549 cell membranes at 250 to 2500 uM by confocal microscopy. The class given is functional, organism-based.
The subject of data set [17] is Pseudomonas aeruginosa. Briefly: Induction of bacterial aggregation in Pseudomonas aeruginosa PAO1 assessed as number of aggregates per 100 uL of PBS cell solution at 100 uM by optical microscopy. The class given is functional.
The subject of data set [18] is Pseudomonas aeruginosa. Briefly: Induction of bacterial aggregation in Pseudomonas aeruginosa PAO1 expressing deltalecB mutant assessed as number of aggregates per 100 uL of PBS cell solution at 100 uM by optical microscopy. The data set is classed as functional.
Data set [19] relates to Pseudomonas aeruginosa. Kind of data set: Induction of bacterial aggregation in Pseudomonas aeruginosa PAO1 expressing deltalecA mutant at 6 to 5000 uM by optical microscopy. The data set is classed as functional, organism-based.
The subject of data set [20] is Pseudomonas aeruginosa. Briefly: Antimicrobial activity Pseudomonas aeruginosa PAO1 infected C57BL6/J mouse lung injury model assessed as effect on alveolar-capillary permeability using 1 mM compound pre-treated bacteria for infection. The class given is functional, organism-based.
For data set [21], the system named is Pseudomonas aeruginosa. Briefly: Antimicrobial activity Pseudomonas aeruginosa PAO1 infected C57BL6/J mouse lung injury model assessed as effect on alveolar-capillary permeability using 5 mM compound pre-treated bacteria for infection. The class given is functional, organism-based.
For data set [22], the system named is Pseudomonas aeruginosa. Briefly: Inhibition of biofilm formation of Pseudomonas aeruginosa PAO1 at 0.1 to 5 mM after 24 hrs by crystal violet staining. The data set is classed as functional, organism-based.
Data set [23] relates to Pseudomonas aeruginosa. Kind of data set: Inhibition of deltalecA mutant expressing Pseudomonas aeruginosa PAO1 adhesion to human A549 cells 25 to 2500 uM. The data set is classed as functional, organism-based.
The test system of data set [24] is Pseudomonas aeruginosa. Briefly: Inhibition of deltalecB mutant expressing Pseudomonas aeruginosa PAO1 adhesion to human A549 cells 25 to 2500 uM. The data set is classed as functional, organism-based.
Data set [25] relates to Pseudomonas aeruginosa. Kind of data set: Induction of bacterial aggregation in Pseudomonas aeruginosa PAO1 at 6 to 5000 uM by optical microscopy. The data set is classed as functional, organism-based.
Data set [26] relates to Pseudomonas aeruginosa. Briefly: Induction of bacterial aggregation in Pseudomonas aeruginosa PAO1 expressing deltalecB mutant at 6 to 5000 uM by optical microscopy. The class given is functional, organism-based.
For data set [27], the system named is Pseudomonas aeruginosa. Briefly: Induction of filamentous-like and spherical bacterial aggregation in Pseudomonas aeruginosa PAO1 expressing deltalecB mutant at 6 to 6600 uM by optical microscopy. The data set is classed as functional, organism-based.
Data set [28] is described as follows: Binding affinity to Pseudomonas aeruginosa LecB by ITC method. On the technique in general: Isothermal titration calorimetry measures the heat released or taken up as one component is titrated into another.
For data set [29], the target named is T2, PA-I galactophilic lectin (Pseudomonas aeruginosa (strain ATCC 15692 / PAO1 / 1C / PRS 101 / LMG12228)) (UniProt Q05097).
T2 sequence (whole entry): T1 sequence (Q05097 whole entry)
Briefly: Binding affinity to Pseudomonas aeruginosa LecA at 1.5 mM by ITC method.

For data set [30], the system named is Pseudomonas aeruginosa. Briefly: Binding affinity to Pseudomonas aeruginosa LecB at 1.5 mM by ITC method.

For the compound `C[C@H]1O[C@@H](OCCOCCOCCn2cc(COc3c4cc(C(C)(C)C)cc3Cc3cc(C(C)(C)C)cc(c3OCc3cn(CCOCCOCCO[C@@H]5O[C@H](CO)[C@H](O)[C@H](O)[C@H]5O)nn3)Cc3cc(C(C)(C)C)cc(c3OCc3cn(CCOCCOCCO[C@@H]5O[C@H](CO)[C@H](O)[C@H](O)[C@H]5O)nn3)Cc3cc(C(C)(C)C)cc(c3OCc3cn(CCOCCOCCO[C@@H]5O[C@H](CO)[C@H](O)[C@H](O)[C@H]5O)nn3)C4)nn2)[C@H](O)[C@@H](O)[C@H]1O`, the result with Pseudomonas aeruginosa [1], in the data set with Pseudomonas aeruginosa [3] and with Pseudomonas aeruginosa [8] was inactive. In the data set on Pseudomonas aeruginosa [2], the result was Active. In addition, binding in data set [4] was characterised by a dissociation constant (Kd) of 176 nM. Besides, the inhibition entry in the data set with Pseudomonas aeruginosa [5], in the data set on Pseudomonas aeruginosa [9], in the data set on Pseudomonas aeruginosa [11], with Pseudomonas aeruginosa [12] and in the data set with Pseudomonas aeruginosa [16] was “Active” throughout. The “inhibition (INH)” value with Pseudomonas aeruginosa [6] worked out at 50%; with Pseudomonas aeruginosa [13], 70%; in the data set on Pseudomonas aeruginosa [14], 50%. Moreover, the Activity entry in the data set with Pseudomonas aeruginosa [7] is “Non-toxic”. For the same compound, the inhibition entry in the data set with Pseudomonas aeruginosa [10] and in the data set with Pseudomonas aeruginosa [15] was “inactive” in each case.
In the case of `CO[C@H]1O[C@H](CO)[C@@H](O)[C@H](O)[C@@H]1O`, the result in the data set on Pseudomonas aeruginosa [8], with Pseudomonas aeruginosa [17] and with Pseudomonas aeruginosa [18] was inactive.
Turning to `OCc1cn(CCOCCOCCO[C@@H]2O[C@H](CO)[C@H](O)[C@H](O)[C@H]2O)nn1`, in data set [4], the Kd was 150000 nM.
On to `CO[C@@H]1O[C@@H](C)[C@@H](O)[C@@H](O)[C@@H]1O`, for which the result with Pseudomonas aeruginosa [19], in the data set with Pseudomonas aeruginosa [20], in the data set on Pseudomonas aeruginosa [21], with Pseudomonas aeruginosa [25] and in the data set on Pseudomonas aeruginosa [26] was inactive. Also, the inhibition entry with Pseudomonas aeruginosa [22] and in the data set with Pseudomonas aeruginosa [24] was “inactive” throughout. Also, the inhibition result with Pseudomonas aeruginosa [23] was “Active”. In addition, the “inhibition (INH)” value in the data set on Pseudomonas aeruginosa [13] is given as 65%.
Turning to `C[C@@H]1O[C@@H](OCCOCCOCCn2cc(COc3c4cc(C(C)(C)C)cc3Cc3cc(C(C)(C)C)cc(c3OCc3cn(CCOCCOCCO[C@@H]5O[C@@H](C)[C@@H](O)[C@@H](O)[C@@H]5O)nn3)Cc3cc(C(C)(C)C)cc(c3OCc3cn(CCOCCOCCO[C@@H]5O[C@@H](C)[C@@H](O)[C@@H](O)[C@@H]5O)nn3)Cc3cc(C(C)(C)C)cc(c3OCc3cn(CCOCCOCCO[C@@H]5O[C@@H](C)[C@@H](O)[C@@H](O)[C@@H]5O)nn3)C4)nn2)[C@@H](O)[C@H](O)[C@@H]1O`, the result in the data set with Pseudomonas aeruginosa [1] was inactive. Besides, the result in the data set with Pseudomonas aeruginosa [2] and in the data set with Pseudomonas aeruginosa [27] was Active. Further, the inhibition entry in the data set with Pseudomonas aeruginosa [5], with Pseudomonas aeruginosa [23], in the data set with Pseudomonas aeruginosa [9], with Pseudomonas aeruginosa [11] and with Pseudomonas aeruginosa [16] was “Active” in each case. In addition, the “inhibition (INH)” value was 50% in the data set on Pseudomonas aeruginosa [6], 90% in the data set with Pseudomonas aeruginosa [13] and 50% in the data set with Pseudomonas aeruginosa [14]. In addition, the inhibition entry in the data set on Pseudomonas aeruginosa [24] and in the data set with Pseudomonas aeruginosa [10] was “inactive” throughout. Further, the Activity result in the data set on Pseudomonas aeruginosa [7] was “Non-toxic”; with Pseudomonas aeruginosa [18], 50. This compound came in with a Kd in data set [28] of 48 nM.
Compound `C[C@@H]1O[C@@H](OCCOCCOCCn2cc(CO)nn2)[C@@H](O)[C@H](O)[C@@H]1O` showed a Kd in [28] of 304 nM.
As to `CC(C)(C)c1cc2c(OCc3cn(CCOCCOCCO[C@@H]4O[C@H](CO)[C@@H](O)[C@H](O)[C@H]4O)nn3)c(c1)Cc1cc(C(C)(C)C)cc(c1OCc1cn(CCOCCOCCO[C@@H]3O[C@H](CO)[C@@H](O)[C@H](O)[C@H]3O)nn1)Cc1cc(C(C)(C)C)cc(c1OCc1cn(CCOCCOCCO[C@@H]3O[C@H](CO)[C@@H](O)[C@H](O)[C@H]3O)nn1)Cc1cc(C(C)(C)C)cc(c1OCc1cn(CCOCCOCCO[C@@H]3O[C@H](CO)[C@@H](O)[C@H](O)[C@H]3O)nn1)C2`, the inhibition result with Pseudomonas aeruginosa [22], with Pseudomonas aeruginosa [9] and in the data set with Pseudomonas aeruginosa [11] was “inactive” each time. Moreover, the outcome (in the data set on Pseudomonas aeruginosa [8]; in [29]; with Pseudomonas aeruginosa [17]; with Pseudomonas aeruginosa [18]; with Pseudomonas aeruginosa [30]) was inactive.
As for `CO[C@H]1O[C@H](CO)[C@H](O)[C@H](O)[C@H]1O`, the result in the data set with Pseudomonas aeruginosa [19], in the data set on Pseudomonas aeruginosa [8], with Pseudomonas aeruginosa [25], in the data set on Pseudomonas aeruginosa [26], in the data set with Pseudomonas aeruginosa [17] and in the data set with Pseudomonas aeruginosa [18] was inactive.
Regarding `CO[C@@H]1O[C@H](CO)[C@H](O)[C@H](O)[C@H]1O`, the outcome with Pseudomonas aeruginosa [19], in the data set with Pseudomonas aeruginosa [20], in the data set with Pseudomonas aeruginosa [21], in the data set with Pseudomonas aeruginosa [8], in the data set with Pseudomonas aeruginosa [25] and in the data set with Pseudomonas aeruginosa [26] was inactive. In addition, the outcome in the data set on Pseudomonas aeruginosa [17] and in the data set on Pseudomonas aeruginosa [18] was inactive. Further, the inhibition entry in the data set on Pseudomonas aeruginosa [22] and in the data set with Pseudomonas aeruginosa [15] was “inactive” in each case. In addition, the “inhibition (INH)” value in the data set on Pseudomonas aeruginosa [13] was 30%.
For the compound `CC(C)(C)c1cc2c(OCc3cn(CCOCCOCCO[C@H]4O[C@H](CO)[C@@H](O)[C@H](O)[C@@H]4O)nn3)c(c1)Cc1cc(C(C)(C)C)cc(c1OCc1cn(CCOCCOCCO[C@H]3O[C@H](CO)[C@@H](O)[C@H](O)[C@@H]3O)nn1)Cc1cc(C(C)(C)C)cc(c1OCc1cn(CCOCCOCCO[C@H]3O[C@H](CO)[C@@H](O)[C@H](O)[C@@H]3O)nn1)Cc1cc(C(C)(C)C)cc(c1OCc1cn(CCOCCOCCO[C@H]3O[C@H](CO)[C@@H](O)[C@H](O)[C@@H]3O)nn1)C2`, the inhibition result in the data set with Pseudomonas aeruginosa [9] and in the data set on Pseudomonas aeruginosa [11] was “inactive” each time. Also, the Kd in data set [28] is 2270 nM. Moreover, the Activity came out at 70 with Pseudomonas aeruginosa [17] and 11 in the data set with Pseudomonas aeruginosa [18].

Broadly, the Kd is a measure of binding affinity in units of concentration.
